Test results from patent US20240226057A1, “NEW USE OF MONENSIN” (MAST PHARMA AB, priority 2021, published 2024).
Like-named read-outs stand apart in the source and are kept apart here.

Columns and labels:
[1] = system: human fibroblast cells (HFL-1); experiment: Cytotoxicity against human fibroblast cells (PrestoBlue); conditions: 10 μM, 48 h
[2] = system: Bone marrow-derived mast cells (BMMCs); experiment: Trypan blue positivity of treated mast cells; assay type: cell-based, mouse
Caspase 3 & 7 = Caspase 3 & 7 activation in mast cells
[3] = system: Bone marrow-derived mast cells (BMMCs); experiment: BMMC viability, screening and kinetic analysis (Presto Blue / resazurin reduction); conditions: BMMCs, Presto Blue
BMMCs = experiment: Granule acidity, LysoSensor Blue DND-167 staining of BMMCs; assay type: cell-based, mouse; conditions: 0-10 μM for 30 min
Description: (§1) To assess cell death, cells were stained with Annexin V and either DRAQ7™ or Via-Probe™ Red Nucleic Acid Stain and analyzed by flow cytometry. To probe pH in acidic organelles, cells were incubated with LysoSensor Blue DND-167, followed by flow cytometry. The relative intracellular pH changes were assessed using the cell-permeable pH-sensitive fluorescent indicator (BCFL-AM). Intracellular calcium changes were assessed using Fluo-4/AM.
BMMCs were treated with 1 μM monensin for 12 and 24 h, followed by Annexin V/DRAQ7 staining to measure cell death. MCs were gated into cells having high and low maturity, as assessed by SSC analysis for granularity (A). The right panels depict the quantification of apoptotic (Annexin V^+/DRAQ7^−) and necrotic (Annexin V^+/DRAQ7^+) cell death in the respective populations (n=3). (B) BMMCs (0.5×10^6 cells) were developed from WT (FIG. 4B) or serglycin^−/− (SG^−/−) mice (data not shown) and were treated with monensin 0-10 μM for 24 h, followed by cell death assessment (Annexin V/DRAQ7 staining). […] To further assess the impact of the secretory granules on monensin-induced cell death, it was evaluated whether the absence of serglycin, a granule-restricted proteoglycan, affects the response to monensin. […]

[4] = system: mouse bone-marrow-derived mast cells (BMMCs); experiment: Annexin V/DRAQ7 cell death assessment in BMMCs; assay type: cell-based; conditions: bafilomycin A 20 nM in combination with monensin, BMMCs
Description: as §1
To analyze the mechanism by which monensin acts on mast cells, Annexin V/DRAQ7 staining was first adopted to assess the type of cell death induced by monensin, the gating is shown in FIG. 2A. […] Necrotic/late apoptotic (Annexin V^+/DRAQ7^+) cells were also seen, but to a lesser extent (right panel).
BMMCs were treated with 1 μM monensin for 12 and 24 h, followed by Annexin V/DRAQ7 staining to measure cell death. MCs were gated into cells having high and low maturity, as assessed by SSC analysis for granularity (A). The right panels depict the quantification of apoptotic (Annexin V^+/DRAQ7^−) and necrotic (Annexin V^+/DRAQ7^+) cell death in the respective populations (n=3). (B) BMMCs (0.5×10^6 cells) were developed from WT (FIG. 4B) or serglycin^−/− (SG^−/−) mice (data not shown) and were treated with monensin 0-10 μM for 24 h, followed by cell death assessment (Annexin V/DRAQ7 staining). BMMCs (C; 0.5×10^6 cells) or human skin MCs (0.1×10^6 cells; D) were treated with monensin or bafilomycin A 0-10 μM for 30 min, followed by staining with LysoSensor Blue DND-167 (a lysosome probe sensitive to decreased pH) (n=4). BMMCs (0.5×10^6 cells) were treated with either monensin or bafilomycin A (20 nM) alone or in combination (E), followed by measurement of cell death (Annexin V/DRAQ7 staining). (F) BMMCs were treated with monensin or bafilomycin A for 4 and 24 h, followed by assessment of cytosolic pH (n=2). […] To further assess the impact of the secretory granules on monensin-induced cell death, it was evaluated whether the absence of serglycin, a granule-restricted proteoglycan, affects the response to monensin. Both WT and serglycin^−/− BMMCs were sensitive to cell death induced by monensin.

mMCP-6 = experiment: Translocation of granule protease mMCP-6 into the cytosolic fraction; assay type: cell-based
[5] = system: Bone marrow-derived mast cells (BMMCs); conditions: mouse

Compound | Cytotoxicity at 10 μM on HSFib (HFL-1) cells [1] | Viability % (TB) (10 μM) [2] [%] | Caspase 3 & 7 activation (Caspase 3 & 7) | Caspase-3 & 7 activation (Caspase 3 & 7) | Viability % (1 μM) ([3]; 1 μM) [%] | Viability % (10 μM) ([3]; 10 μM, 24 hours) [%] | LysoSensor Blue DND-167 staining / granule acidity, BMMCs (BMMCs) | Extent of cell death induced by monensin when combined with bafilomycin A [4] | Monensin-induced translocation of mMCP-6 to the cytosol in cells treated with bafilomycin A (mMCP-6) | Viability % (1 μM) ([5]; 1 µM) [%] | Viability % (10 μM) ([5]; 24 h, 10 µM) [%]
CC(=O)OC[C@H]1O[C@@H]([S-])[C@H](OC(C)=O)[C@@H](OC(C)=O)[C@@H]1OC(C)=O.CCP(CC)CC.[Au+] [Auranofin] | exhibited cytotoxicity | 100 | + | caspase-3 & 7 positivity | 83 | 1 |  |  |  |  | 
CO/C1=C\C(C)=C\[C@@H](C)[C@@H](O)[C@@H](C)C/C(C)=C/C=C/[C@H](OC)[C@@H]([C@@H](C)[C@@H](O)[C@H](C)[C@@]2(O)C[C@@H](O)[C@H](C)[C@@H](C(C)C)O2)OC1=O [Bafilomycin A] |  |  |  |  |  |  | profound reduction | significant reduction | abrogated |  | 
CCN(CC)CCOc1ccc(C(=C(Cl)c2ccccc2)c2ccccc2)cc1 [Clomiphene] |  | 22 | − | absence of a positive signal |  |  |  |  |  | 99 | 76
